Assay results: patent US6588142B2, “Method of protecting plants from cold injury” (North Carolina State University, priority 2000, dated 2003)

Assays:
peanut [1] = assay: peanut field study, yield per acre; format: in vivo
Source text: (§1) A peanut field was fumigated on April 28 with Metam sodium to control Cylindrocladium. The test plants were planted on May 22 with 16 different varieties of seed (Andru 93; Georgia Green; Tam Run 98; AT120; Southern Runner; Georgia Gold; Georgia Runner; 6K7WIDLEIL; FLA97R; FLAMDR98; FLA84x9B; NC7; VA93B; Perry; VA92R; VA98R), with a two-row planter. Temik and rhizobium were applied in furrow at standard rates. The spray date for the first treatment was July 20; the spray date for the second treatment was August 19. A tractor-mounted sprayer was used for all treatment sprays, with three hollow-cone nozzles per row at 40 psi, and 15 gal water/acre, at a height to cover the entire plant. Only the two treatment rows were sprayed. There were two unsprayed border rows between each treatment, to minimize interplot interference, and to assure even distribution of disease across plots. Herbicides, insecticides, and early leafspot control were applied according to standard practices across the field. Particular treatments were as follows:
(§2) (2) 15.22 fl. oz. Omega 500™ fluazinam 500F/acre (per spray)
(§3) (3) 30.44 fl. oz. Omega 500™ fluazinam 500F/acre (per spray)
(§4) (4) 60.88 fl. oz. Omega 500™ fluazinam 500F/acre (per spray)
(§5) (5) 32.0 fl. oz. Rovral™ brand iprodione+7.68 fl. oz. Nufilm™ adjuvant per acre (per spray)
Peanuts were dug on November 10, and harvested on November 15. Moisture samples were taken from untreated plots of each variety. Yields were adjusted to 9% moisture.
(§6) Data: Statistics were run using the SAS System using the General Linear Models Procedure.

Sclerotinia blight = assay: peanut field study, disease incidence; format: in vivo
Source text: as §1, §2, §3, §4, §5, §6

peanut [2] = assay: peanut field study, frost injury rating; format: in vivo; settings: for Frost Injury, Pr > |T|: frost 66 days after last spray
Source text: as §1, §2, §3, §4, §5
Frost occurred on October 25. Frost ratings were done on November 2d. Rating Index: 1<5% green leaves, 4>50% green leaves; values between 1 and 4 were scaled from 5 to 50%. Stems were not rated, and varied from completely brown, to black, to bright green. When rating percentage of green leaves in a plot, those obviously dead from disease were ignored, and the rating was based on the remaining leaves.
as §6

[3] = pH 7; cited from earlier work
[4] = treatment effect on various peanut cultivars

With O=[N+]([O-])c1cc(C(F)(F)F)c(Cl)c([N+](=O)[O-])c1Nc1ncc(C(F)(F)F)cc1Cl [fluazinam] the “Yield/Acre, Pr > |T|” value (peanut [1]; High Rate vs Control) was 0.0001, the “Yield/Acre, Pr > |T|” value (peanut [1]; High Rate vs Rovral) was 0.0001 and the yields (peanut [1]; high rate, vs both Untreated Control and Rovral) was “statistically significantly higher”. For the same compound, the yields (peanut [1]; treatment effect) was “significantly higher”, the “Disease Incidence, Pr > |T|” value (Sclerotinia blight; High Rate vs Control) was 0.0001 and the “Disease Incidence, Pr > |T|” value (Sclerotinia blight; High Rate vs Rovral) was 0.3911. For the same compound, the disease control (Sclerotinia blight; High Rate vs Rovral) was “not significantly better”, the disease control (Sclerotinia blight; high rate, vs Untreated Control) was “statistically significantly better disease control” and the Sclerotinia blight (Sclerotinia blight; [4]) was “significantly reduced”. For the same compound, the “Frost Injury, Pr > |T|” value (peanut [2]; High Rate vs Control) was 0.0001, the “Frost Injury, Pr > |T|” value (peanut [2]; High Rate vs Rovral) was 0.0001 and the frost protection (peanut [2]; high rate, compared to both Untreated Control and Rovral) was “statistically significantly better frost protection”. The frost injury (peanut [2]; [4]) was “significantly reduced” and the water solubility [3] was 0.071 ppm.
